The nature of data set [1]: Solubility of the desbenzo analogue compared with 66. In kind it is physicochemical. As to the method:
For example, the melting point of 66 is 220° C. and the desbenzo analogue is 83.5° C.

The test system of data set [2] is 3D7 strain of Plasmodium falciparum. Description: Potency in the 3D7 strain of Plasmodium falciparum (EC50). Type of data set: cell-based. The conditions noted are these: for EC50: Plasmodium falciparum. From the text:
(§1) The present invention relates to methods of treating malaria with tetrahydrobenzonaphtyridine carboxanilide (TBN) derivatives and related pyrrolinones and hydrolysis products thereof. These compounds are active against Plasmodium falciparum strains that are resistant to multiple drugs currently on the market. The present invention further relates to novel compounds and pharmaceutical compositions comprising such compounds. The compounds have been synthesized and tested for their potency in the 3D7 strain of Plasmodium falciparum. Their cytotoxicity was also tested in the BJ human fibroblast line. No compounds show significant cytotoxicity.
(§2) A high-throughput screen performed against the Plasmodium parasite. About 8,000 compounds were screened. Each hit was tested against resistant P. falciparum variants K1, V1S, D10DD, ATP4 1247, and C2B. Potency against these assays assured that the chemotype acts through a mechanism distinct from that of halofantrine, chloroquine, mefloquine, pyrimethamine, proguanil, atovaquone, and (+)SJ733. The toxicity of the compounds was also measured by testing their lethality against a BJ cell line (human fibroblasts). No TBNs were toxic. A structure activity investigation was performed in order to improve the EC50 of the TBNs to the single-digit nanomolar range, as well as to increase the water solubility.
(§3) Substituents were installed at N−2 by using a variety of methods. Reductive alkylation (Abdel-Magid, A. F.; Mehrman, S. J. A Review on the Use of Sodium Triacetoxyborohydride in the Reductive Amination of Ketones and Aldehydes. Org. Process Res. Dev. 2006, 10 (5), 971-1031) was a dependable technique that produced over fifteen analogues. Conjugate additions and nucleophilic substitutions provided most of the others. A type of reductive alkylation that uses carboxylic acids instead of aldehydes (the Beller reduction) led to two analogues (Sorribes, I.; Junge, K.; Beller, M. Direct Catalytic N-Alkylation of Amines with Carboxylic Acids. J. Am. Chem. Soc. 2014, 136 (40), 14314-14319. Some of the compounds listed were synthesized through other means, or were derived from other TBNs. Compounds 66 and 128 were produced by the amidation of acids 132 and 133, which had the corresponding substitution already installed. TBNs 93, and 94 were produced from the Pfitzinger products formed from the condensation of isatin with (R)-1-(1-phenylethyl)piperidin-4-one (134) and (S)-1-(1-phenylethyl)piperidin-4-one (135), respectively.

The subject of data set [3] is resistant P. falciparum variant K1. The experiment in a line: Potency against resistant P. falciparum variant K1 (EC50). Type of data set: cell-based. The conditions noted are these: Plasmodium falciparum, K1, read-out: K1 EC50 (μM). As to the method: as §2, §3
Another data set in a line: in vitro. The following applies: human. Type of data set: cell-based.
Excerpt: as §1, §2

Setting [4] is: 3D7, read-out: 3D7 Mean EC50 (μM).

Read-outs that look alike come from different tables or passages of the source. Some results are limits rather than exact numbers.

As a reminder, the EC50 is the concentration needed to bring the measured effect to its halfway point.

For `O=C(Nc1ccc(F)c(F)c1)c1ccnc2c1CN(Cc1ccccc1)CC2` [Compound 68, 6-Benzyl-N-(3,4-difluorophenyl)-5,6,7,8-tetrahydro-1,6-naphthyridine-4-carboxamide], the “solubility, in words” value in data set [1] was “increased solubility versus 66”. Moreover, the EC50 in data set [2] (3D7) worked out at 3.48 µM.

Turning to `CN(C)C(=O)CCN1CCc2nc3ccccc3c(C(=O)Nc3ccc(F)c(F)c3)c2C1` [Compound 110, N-(3,4-Difluorophenyl)-2-(3-(dimethylamino)-3-oxopropyl)-1,2,3,4-tetrahydrobenzo[b][1,6]naphthyridine-10-carboxamide], the figures for the EC50 (in data set [3]; in data set [2] (setting [4]); in “in vitro”) were 0.658 µM, 0.888 ± 0.459 µM and over 23.3 µM, respectively.

`N#Cc1cc(N2C(=O)c3c4c(nc5cc(Cl)ccc35)CCN(CCc3ccccc3)C42)ccc1F` (stereo not shown) [Compound 184, 5-(8-Chloro-1-oxo-3-phenethyl-2a,3,4,5-tetrahydrobenzo[b]pyrrolo[4,3,2-de][1,6]naphthyridin-2(1H)-yl)-2-fluorobenzonitrile]: the values for the EC50 (in data set [2] (setting [4]); in the data set “in vitro”) were 0.0437 ± 0.021 µM and over 24 µM, respectively.

Regarding `O=C1c2c3c(nc4cc(Cl)ccc24)CCN(CCc2ccccc2)C3N1c1ccc(Br)cc1` (stereo not shown) [Compound 175, 2-(4-Bromophenyl)-8-chloro-3-phenethyl-2a,3,4,5-tetrahydrobenzo[b]pyrrolo[4,3,2-de][1,6]naphthyridin-1(2H)-one], the EC50 is under 0.00192 µM in data set [2] (setting [4]) and 15.2 ± 8.47 µM in “in vitro”.

With `CCOCCN1CCc2nc3ccccc3c3c2C1N(c1ccc(F)c(F)c1)C3=O` (stereo not shown) [Compound 180, 2-(3,4-Difluorophenyl)-3-(2-ethoxyethyl)-2a,3,4,5-tetrahydrobenzo[b]pyrrolo[4,3,2-de][1,6]naphthyridin-1(2H)-one], the results for the half-maximal effective concentration (EC50) (in data set [2] (setting [4]); in the data set “in vitro”) were 0.0087 ± 0.001 µM and over 24 µM, respectively.

`O=C(Nc1ccc(Cl)cc1)c1c2c(nc3cc(Cl)ccc13)CCN(CCc1ccccc1)C2` [Compound 165, 7-Chloro-N-(4-chlorophenyl)-2-phenethyl-1,2,3,4-tetrahydrobenzo[b][1,6]naphthyridine-10-carboxamide]: the figures for the EC50 (in data set [2] (setting [4]); in “in vitro”) were under 0.00809 µM and over 24 µM, respectively.

As to `CC(c1ccccn1)N1CCc2nc3ccccc3c(C(=O)Nc3ccc(F)c(F)c3)c2C1` (stereo not shown) [Compound 90, N-(3,4-Difluorophenyl)-2-(1-(pyridin-2-yl)ethyl)-1,2,3,4-tetrahydrobenzo[b][1,6]naphthyridine-10-carboxamide], the EC50 in data set [3] was 0.0439 µM; in data set [2] (setting [4]), 0.0603 ± 0.0234 µM; in the data set “in vitro”, over 11.7 µM.

Turning to `O=C(Nc1ccc(Br)cc1)c1c2c(nc3cc(Cl)ccc13)CCN(CCc1ccccc1)C2` [Compound 171, N-(4-Bromophenyl)-7-chloro-2-phenethyl-1,2,3,4-tetrahydrobenzo[b][1,6]naphthyridine-10-carboxamide], the EC50 in data set [2] (setting [4]) is 0.37 ± 0.26 µM; in “in vitro”, over 24 µM.

On to `COc1ccc(N2C(=O)c3c4c(nc5ccc(Cl)cc35)CCN(CCc3ccccc3)C42)cc1OC` (stereo not shown) [Compound 185, 9-Chloro-2-(3,4-dimethoxyphenyl)-3-phenethyl-2a,3,4,5-tetrahydrobenzo[b]pyrrolo[4,3,2-de][1,6]naphthyridin-1(2H)-one], for which the figures for the EC50 (in data set [2] (setting [4]); in “in vitro”) were 0.049 ± 0.016 µM and over 24 µM, respectively.

Regarding `O=C1c2c3c(nc4cc(Cl)ccc24)CCN(CCc2ccccc2)C3N1c1ccc(Cl)cc1` (stereo not shown) [Compound 179, 8-Chloro-2-(4-chlorophenyl)-3-phenethyl-2a,3,4,5-tetrahydrobenzo[b]pyrrolo[4,3,2-de][1,6]naphthyridin-1(2H)-one], the EC50 in data set [2] (setting [4]) stood at 0.0059 ± 0.002 µM; in “in vitro”, 22.6 ± 0.373 µM.

On to `COc1ccc(NC(=O)c2c3c(nc4ccc(Cl)cc24)CCN(CCc2ccccc2)C3)cc1OC` [Compound 170, 8-Chloro-N-(3,4-dimethoxyphenyl)-2-phenethyl-1,2,3,4-tetrahydrobenzo[b][1,6]naphthyridine-10-carboxamide], for which the results for the EC50 (in data set [2] (setting [4]); in the data set “in vitro”) were 0.116 ± 0.025 µM and over 24 µM, respectively.

As to `N#Cc1cc(NC(=O)c2c3c(nc4cc(Cl)ccc24)CCN(CCc2ccccc2)C3)ccc1F` [Compound 169, 7-Chloro-N-(3-cyano-4-fluorophenyl)-2-phenethyl-1,2,3,4-tetrahydrobenzo[b][1,6]naphthyridine-10-carboxamide], the EC50 was 0.04 ± 0.032 µM in data set [2] (setting [4]) and over 24 µM in the data set “in vitro”.

On to `N#CCCN1CCc2nc3ccccc3c(C(=O)Nc3ccc(F)c(F)c3)c2C1` [Compound 113, 2-(2-Cyanoethyl)-N-(3,4-difluorophenyl)-1,2,3,4-tetrahydrobenzo[b][1,6]naphthyridine-10-carboxamide], for which the values for the concentration giving a half-maximal response (EC50) (in data set [3]; in data set [2] (setting [4]); in the data set “in vitro”) were 2.05 ± 0.256 µM, 1.62 ± 1.25 µM and over 23.3 µM, respectively.

As to `O=C1c2c3c(nc4ccc(Cl)cc24)CCN(CCc2ccccc2)C3N1c1ccc(Cl)cc1` (stereo not shown) [Compound 181, 9-Chloro-2-(4-chlorophenyl)-3-phenethyl-2a,3,4,5-tetrahydrobenzo[b]pyrrolo[4,3,2-de][1,6]naphthyridin-1(2H)-one], the EC50 in data set [2] (setting [4]) is 0.0126 ± 0.002 µM; in “in vitro” it was over 24 µM.

As to `O=C(Nc1ccc(Cl)cc1)c1c2c(nc3ccc(Cl)cc13)CCN(CCc1ccccc1)C2` [Compound 168, 8-Chloro-N-(4-chlorophenyl)-2-phenethyl-1,2,3,4-tetrahydrobenzo[b][1,6]naphthyridine-10-carboxamide], the EC50 in data set [2] (setting [4]) is under 0.0348 µM; in the data set “in vitro”, over 24 µM.

Regarding `O=C1c2c3c(nc4ccc(Cl)cc24)CCN(CCc2ccccc2)C3N1c1cccc(Cl)c1` (stereo not shown) [Compound 176, 9-Chloro-2-(3-chlorophenyl)-3-phenethyl-2a,3,4,5-tetrahydrobenzo[b]pyrrolo[4,3,2-de][1,6]naphthyridin-1(2H)-one], the values for the EC50 (in data set [2] (setting [4]); in the data set “in vitro”) were under 0.00296 µM and over 24 µM, respectively.

With `C=CCN1CCc2nc3ccccc3c(C(=O)Nc3ccc(F)c(F)c3)c2C1` [Compound 92, 2-Allyl-N-(3,4-difluorophenyl)-1,2,3,4-tetrahydrobenzo[b][1,6]naphthyridine-10-carboxamide], the EC50 is 0.0719 µM in data set [3], 0.128 ± 0.0238 µM in data set [2] (setting [4]) and over 23.3 µM in “in vitro”.

On to `COC(=O)CCN1CCc2nc3ccccc3c(C(=O)Nc3ccc(F)c(F)c3)c2C1` [Compound 109, Methyl 3-(10-((3,4-difluorophenyl)carbamoyl)-3,4-dihydrobenzo[b][1,6]naphthyridin-2(1H)-yl)propanoate], for which the EC50 is 0.487 µM in data set [3], 0.673 ± 0.107 µM in data set [2] (setting [4]) and over 23.3 µM in “in vitro”.

In the case of `CC(=O)O[C@H]1CO[C@H]2[C@@H]1OC[C@@H]2Oc1cccc(N2C(=O)c3c4c(nc5ccccc35)CCN(CCc3ccccc3)C42)c1` (stereo partly drawn) [Compound 183, (3S,3aR,6S,6aR)-6-(3-(1-Oxo-3-phenethyl-2a,3,4,5-tetrahydrobenzo[b]pyrrolo[4,3,2-de][1,6]naphthyridin-2(1H)-yl)phenoxy)hexahydrofuro[3,2-b]furan-3-yl Acetate], the “improvement of potency by oxidation of the TBN to the pyrrolinone” value in data set [2] (183 versus corresponding TBN 147) was “nearly a hundred-fold”. Also, the EC50 in data set [2] (3D7) was 0.0407 µM; in data set [2] (setting [4]), 0.0407 ± 0.012 µM; in the data set “in vitro”, over 24 µM.

With `COc1ccc(NC(=O)c2c3c(nc4cc(Cl)ccc24)CCN(CCc2ccccc2)C3)cc1OC` [Compound 166, 7-Chloro-N-(3,4-dimethoxyphenyl)-2-phenethyl-1,2,3,4-tetrahydrobenzo[b][1,6]naphthyridine-10-carboxamide], the EC50 in data set [2] (setting [4]) is under 0.0132 µM; in the data set “in vitro”, over 24 µM.

`CC(C)(C)OC(=O)N1CCc2nc3ccccc3c(C(=O)Nc3ccc(F)c(F)c3)c2C1` [Compound 87, tert-Butyl 10-((3,4-difluorophenyl)carbamoyl)-3,4-dihydrobenzo[b][1,6]naphthyridine-2(1H)-carboxylate]: the EC50 in data set [2] (setting [4]) was 1.67 ± 0.8 µM; in “in vitro”, over 23.3 µM.
